Among the data in ChEMBL document CHEMBL1159295, “Sulfated Polyprenylhydroquinones from the Sponge Ircinia spinosula” (J Nat Prod, 1995) are LC50 and Activity values, retold here.

For data set [1], the system named is Gambusia affinis. As to the kind of experiment: Toxicity in Gambusia affinis. The data set is classed as organism-based. To be noted: in vivo.
The test system of data set [2] is Artemia salina. As to the kind of experiment: Toxicity in Artemia salina. Particulars: in vivo. The data set is classed as organism-based.
Data set [3] concerns Bacillus subtilis. In words: Antibacterial activity against Bacillus subtilis DSM 347 at 100 ug/disk by diffusion test. It is filed as functional, organism-based.
Data set [4] deals with Micrococcus luteus. As to the kind of experiment: Antibacterial activity against Micrococcus luteus DSM 348 at 100 ug/disk by diffusion test. The data set is classed as functional, organism-based.
Data set [5] has as its system Pseudomonas aeruginosa. In words: Antibacterial activity against Pseudomonas aeruginosa DSM 1117 at 100 ug/disk by diffusion test. It is filed as functional, organism-based.
The subject of data set [6] is Escherichia coli. In words: Antibacterial activity against Escherichia coli DSM 1103 at 100 ug/disk by diffusion test. The data set is classed as functional, organism-based.
The subject of data set [7] is Candida albicans. In words: Antifungal activity against Candida albicans DSM 1665 at 100 ug/disk by diffusion test. The data set is classed as functional, organism-based.

The source made the active and inactive calls. No cut-off for these calls is given here. Some results are limits rather than exact numbers.

As to `CC(C)=CCC/C(C)=C/CC/C(C)=C/CC/C(=C/CC/C(C)=C/CC/C(C)=C/CC/C(C)=C/CCC1(C)C=Cc2cc(O)ccc2O1)CO` (stereo not drawn), the LC50 in data set [1] was more than 100 ppm; in data set [2], 32.3 ppm. Moreover, the outcome in data set [3], in data set [4], in data set [5], in data set [6] and in data set [7] was inactive.
In the case of `CC(C)=CCC/C(C)=C/CC/C(C)=C/CC/C(C)=C/CC/C(C)=C/CC/C(C)=C/CC/C(C)=C/CC/C(C)=C/Cc1cc(OS(=O)(=O)[O-])ccc1O.[Na+]`, the median lethal concentration (LC50) in data set [1] is 16.9 ppm; in data set [2] it was 0.04 ppm. Moreover, the outcome in data set [3], in data set [4], in data set [5], in data set [6] and in data set [7] was inactive.
In the case of `CC(C)=CCC/C(C)=C/CC/C(C)=C/CC/C(C)=C/CC/C(C)=C/CC/C(C)=C/CC/C(C)=C/Cc1cc(O)ccc1O`, the LC50 in data set [1] was more than 100 ppm; in data set [2], 0.91 ppm.
Take `CC(C)=CCC/C(C)=C/CC/C(C)=C/CC/C(C)=C/CC/C(C)=C/CC/C(C)=C/CCC1(C)C=Cc2cc(O)ccc2O1` (stereo not drawn): the LC50 is given as more than 100 ppm in data set [1] and 1.15 ppm in data set [2]. The result in data set [3], in data set [4], in data set [5], in data set [6] and in data set [7] was inactive.
In the case of `CC(C)=CCC/C(C)=C/CC/C(C)=C/CC/C(=C/CC/C(C)=C/CC/C(C)=C/CC/C(C)=C/CC/C(C)=C/Cc1cc(OS(=O)(=O)[O-])ccc1O)CO.[Na+]`, the results for the LC50 in data set [1] and in data set [2] were 19.6 ppm and 0.05 ppm, respectively. Also, the result in data set [3], in data set [4], in data set [5], in data set [6] and in data set [7] was inactive.
On to `CC(C)=CCC/C(C)=C/CC/C(C)=C/CC/C(C)=C/CC/C(C)=C/CC/C(C)=C/CC/C(C)=C/Cc1cc(OS(=O)(=O)[O-])ccc1O.[Na+]`, for which the LC50 was found to be 15.6 ppm in data set [1] and 0.02 ppm in data set [2]. Moreover, the outcome in data set [3], in data set [4], in data set [5], in data set [6] and in data set [7] was inactive.
Take `CC(C)=CCC/C(C)=C/CC/C(C)=C/CC/C(=C/CC/C(C)=C/CC/C(C)=C/CC/C(C)=C/CC/C(C)=C/Cc1cc(O)ccc1O)CO`: the LC50 in data set [1] was more than 100 ppm; in data set [2] it was 0.35 ppm. The result in data set [3], in data set [4], in data set [5], in data set [6] and in data set [7] was inactive.
Take `CC(C)=CCC/C(C)=C/CC/C(C)=C/CC/C(C)=C/CC/C(C)=C/CC/C(C)=C/CC/C(C)=C/CC/C(C)=C/Cc1cc(O)ccc1O`: the LC50 in data set [1] is more than 100 ppm; in data set [2] it was 0.98 ppm.
On to `CC(C)=CCC/C(C)=C/CC/C(C)=C/CC/C(C)=C/CC/C(C)=C/CC/C(C)=C/CC/C(C)=C/CCC1(C)C=Cc2cc(O)ccc2O1` (stereo not drawn), for which the values for the LC50 in data set [1] and in data set [2] were more than 100 ppm and 1.45 ppm, respectively. Also, the result in data set [3], in data set [4], in data set [5], in data set [6] and in data set [7] was inactive.

Usually LC50 stands for the concentration lethal to half of the exposed cells or organisms.
